# Measurements: paper PMC9687798, “Atypical Substrates of the Organic Cation Transporter 1” (Biomolecules, 2022)
# Like-named read-outs stand apart in the source and are kept apart here.
# What was measured:
# human OCT1*1 (wild-type) [1] = target: T1, human OCT1*1 (wild-type) (Homo sapiens, UniProt O15245); experiment: Cellular uptake ratio, OCT1-overexpressing HEK293 cells vs empty vector; type: cell-based
# T1 sequence (O15245 1-554): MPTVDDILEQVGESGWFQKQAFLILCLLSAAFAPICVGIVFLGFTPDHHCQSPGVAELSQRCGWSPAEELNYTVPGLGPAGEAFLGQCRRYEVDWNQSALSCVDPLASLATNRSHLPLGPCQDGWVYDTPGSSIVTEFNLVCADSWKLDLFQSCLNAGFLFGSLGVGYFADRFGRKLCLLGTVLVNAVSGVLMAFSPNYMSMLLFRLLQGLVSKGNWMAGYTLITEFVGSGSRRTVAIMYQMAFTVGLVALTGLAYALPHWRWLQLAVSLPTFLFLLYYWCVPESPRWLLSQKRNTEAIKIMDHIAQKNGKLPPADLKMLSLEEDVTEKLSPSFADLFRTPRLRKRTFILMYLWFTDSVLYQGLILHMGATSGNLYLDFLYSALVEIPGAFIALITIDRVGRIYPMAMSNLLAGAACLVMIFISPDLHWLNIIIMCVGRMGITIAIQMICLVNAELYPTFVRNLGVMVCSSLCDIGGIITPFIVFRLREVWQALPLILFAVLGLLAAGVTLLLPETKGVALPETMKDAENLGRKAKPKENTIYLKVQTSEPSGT
# Method: (§1) The wild-type cell lines of OCT1 and OCT2, as well as the variant cell lines OCT1*2 and *3, were generated using the Flp-In system (Thermo Fisher Scientific, Darmstadt, Germany) as described in previous publications. The cell line overexpressing OCT3 was a kind gift from Dr. Koepsell and Dr. Gorbulev (University of Würzburg, Germany). Cells transfected with the empty pcDNA5/FRT vector were used for the transport experiments as a control cell line. All cells were cultured approximately up to passage 30.
# (§2) Forty-eight hours before the transport experiments, 600,000 cells were plated on 12-well plates pre-coated with poly-D-lysine and incubated at 37 °C with 5% CO2. The prepared 12-well plate with cells was positioned on a heating plate pre-warmed to 37 °C. After removing the medium, the cells were washed with 37 °C HBSS+ (10 mM HEPES in Hank’s balanced salt solution, pH 7.4). Then, one pre-defined concentration of a substrate was added to each well. The incubation period was stopped by adding 2 mL of 4 °C HBSS+ and removing the cells from the heating plate. The cells were washed twice with 4 °C HBSS+. For cell lysis, the cells were incubated for 15 min with 500 µL of 80% acetonitrile (LGC Standards, Wesel, Germany), which contained a respective internal standard (Table 1).
# (§3) For concentration-dependent transport, the cells were incubated with defined substrate concentrations (0.1, 1, 10, 30, 100, 300, 600, 1000 µM) for the respective pre-defined incubation times. […] The uptake by a transporter was normalised to the uptake by empty vector-transfected cells. […] The results of transport experiments were normalized to the total protein concentration per well. Total protein quantification was performed using a bicinchoninic acid assay with bovine serum albumin as standard.
# (§4) The ratios of cellular uptake were calculated by dividing the total uptake of transporter-overexpressing cells by the total uptake into empty vector transfected cells. The concentration-dependent cellular net uptake was used for analysis of transport kinetics by subtracting for each substrate concentration the uptake of empty vector-transfected cells from the uptake of transporter-overexpressing cells. […] The intrinsic clearance Clint was expressed with the ratio of Vmax and KM.
# wild-type human OCT2 = target: T2, wild-type human OCT2 (Homo sapiens, UniProt O15244); experiment: Cellular uptake ratio, OCT2-overexpressing HEK293 cells vs empty vector; type: cell-based
# T2 sequence (O15244 1-555): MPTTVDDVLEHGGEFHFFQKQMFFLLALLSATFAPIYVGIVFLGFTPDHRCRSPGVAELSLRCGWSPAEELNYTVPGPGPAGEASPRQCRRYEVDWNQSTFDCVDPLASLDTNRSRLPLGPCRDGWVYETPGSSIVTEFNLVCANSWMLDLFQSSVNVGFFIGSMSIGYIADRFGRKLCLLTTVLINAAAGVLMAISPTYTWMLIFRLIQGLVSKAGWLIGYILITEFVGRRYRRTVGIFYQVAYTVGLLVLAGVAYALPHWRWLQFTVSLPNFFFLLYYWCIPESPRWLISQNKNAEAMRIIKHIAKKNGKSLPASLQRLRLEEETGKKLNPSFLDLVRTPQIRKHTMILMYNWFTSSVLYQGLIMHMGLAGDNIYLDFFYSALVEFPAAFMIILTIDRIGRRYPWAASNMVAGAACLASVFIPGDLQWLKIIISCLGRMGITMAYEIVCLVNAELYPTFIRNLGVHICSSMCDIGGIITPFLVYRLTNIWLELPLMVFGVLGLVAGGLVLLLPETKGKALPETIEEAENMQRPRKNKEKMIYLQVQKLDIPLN
# Method: as §1, §2, §3, §4
# OCT3 = target: T3, OCT3 (Homo sapiens, UniProt O75751); experiment: Cellular uptake ratio, OCT3-overexpressing HEK293 cells vs empty vector; type: cell-based
# T3 construct: expressed in transfected cells; host or cells: HEK293, stably transfected; gift from Dr. Koepsell and Dr. Gorbulev (University of Würzburg)
# T3 sequence (O75751 1-556): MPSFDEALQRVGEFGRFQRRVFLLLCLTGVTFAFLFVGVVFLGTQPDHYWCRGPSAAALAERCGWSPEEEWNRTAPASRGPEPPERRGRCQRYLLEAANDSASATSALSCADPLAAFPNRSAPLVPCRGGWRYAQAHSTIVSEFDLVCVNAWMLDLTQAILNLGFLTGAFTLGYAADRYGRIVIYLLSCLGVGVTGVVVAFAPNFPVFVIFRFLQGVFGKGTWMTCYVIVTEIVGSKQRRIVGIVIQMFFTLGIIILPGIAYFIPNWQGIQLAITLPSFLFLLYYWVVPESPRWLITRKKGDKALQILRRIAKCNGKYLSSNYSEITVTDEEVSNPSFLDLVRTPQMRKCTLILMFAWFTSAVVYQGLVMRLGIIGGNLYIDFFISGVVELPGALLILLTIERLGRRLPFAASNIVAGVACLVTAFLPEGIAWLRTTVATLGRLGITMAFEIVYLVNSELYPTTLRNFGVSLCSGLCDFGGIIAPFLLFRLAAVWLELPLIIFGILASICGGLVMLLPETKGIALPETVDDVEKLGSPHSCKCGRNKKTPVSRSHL
# Method: as §1, §2, §3, §4
# human OCT1*1 (wild-type) [2] = target: T1, human OCT1*1 (wild-type); experiment: Concentration-dependent uptake (transport kinetics) in HEK293 cells overexpressing OCT1 wild-type; settings: for Clint (±SEM): intrinsic clearance = ratio of Vmax and KM, OCT1 wild-type
# [3] = based on ratio uptake data at 1 µM
# [4] = good >5, poor 1–5, non-substrate <1 µL/mg protein/min or uptake not above empty vector
# [5] = net uptake (OCT1 minus empty vector), HEK293, 0.1-1000 µM substrate, Michaelis–Menten
# [6] = based on ratio uptake data at 100 µM (footnote *)
compound,measurement,setting,value
"C[N+]1(C)CCC[C@H]1C(=O)[O-] [Stachydrine, stachydrine]",OCT1 transport category,human OCT1*1 (wild-type) [1]; [3],"0 (no transport by OCT1, OCT2, and OCT3 occurred (i.e., no kinetic parameters or uptake ratio <2 without significance))"
same,OCT2 transport category,wild-type human OCT2; [3],"0 (no transport by OCT1, OCT2, and OCT3 occurred (i.e., no kinetic parameters or uptake ratio <2 without significance))"
same,OCT3 transport category,OCT3; [3],"0 (no transport by OCT1, OCT2, and OCT3 occurred (i.e., no kinetic parameters or uptake ratio <2 without significance))"
same,OCT1 substrate classification from concentration-dependent uptake,human OCT1*1 (wild-type) [2]; [4],very poor OCT1-mediated transport
same,Vmax (±SEM),human OCT1*1 (wild-type) [2]; [5],238 ± 134 pmol/mg Protein/min
"Nc1ncn([C@H]2C[C@H](O)[C@@H](CO)O2)c(=O)n1 [Decitabine, decitabine]",OCT1 substrate classification from concentration-dependent uptake,human OCT1*1 (wild-type) [2]; [4],none of the four antimetabolites showed uptake by OCT1
"Nc1ccn([C@@H]2O[C@H](CO)[C@@H](O)[C@@H]2O)c(=O)n1 [Cytarabine, cytarabine]",OCT1 substrate classification from concentration-dependent uptake,human OCT1*1 (wild-type) [2],none of the four antimetabolites showed uptake by OCT1
"C[C@@](Cc1ccc(O)c(O)c1)(NN)C(=O)O [Carbidopa, carbidopa]",OCT1 transport category,human OCT1*1 (wild-type) [1]; [6],"0 (no transport by OCT1, OCT2, and OCT3 occurred (i.e., no kinetic parameters or uptake ratio <2 without significance))"
same,OCT2 transport category,wild-type human OCT2; [6],"0 (no transport by OCT1, OCT2, and OCT3 occurred (i.e., no kinetic parameters or uptake ratio <2 without significance))"
same,OCT3 transport category,OCT3; [6],"0 (no transport by OCT1, OCT2, and OCT3 occurred (i.e., no kinetic parameters or uptake ratio <2 without significance))"
same,OCT1 substrate classification from concentration-dependent uptake,human OCT1*1 (wild-type) [2]; [4],linear increase in total uptake of both cell lines
"Nc1nc(O)c2ncn(COC(CO)CO)c2n1 [Ganciclovir, ganciclovir]",OCT3 transport category,OCT3; [3],"0 (no transport by OCT1, OCT2, and OCT3 occurred (i.e., no kinetic parameters or uptake ratio <2 without significance))"
"C[n+]1ccc(-c2ccccc2)cc1 [MPP^+, 1-methyl-4-phenylpyridinium]",uptake ratio by OCT1 (normalised to empty vector),human OCT1*1 (wild-type) [1]; 1 µM and 100 µM substance,up to 30
same,OCT1 transport category,human OCT1*1 (wild-type) [1]; [3],++ (very good substrates of OCTs that have an intrinsic clearance >15 or show an uptake ratio >10)
same,OCT2 transport category,wild-type human OCT2; [3],++ (very good substrates of OCTs that have an intrinsic clearance >15 or show an uptake ratio >10)
same,uptake ratio by OCT3 (normalised to empty vector),OCT3; 1 µM and 100 µM substance,relevant uptake
same,OCT3 transport category,OCT3; [3],++ (very good substrates of OCTs that have an intrinsic clearance >15 or show an uptake ratio >10)
same,Clint (±SEM),human OCT1*1 (wild-type) [2],20.8 ± 5.04 µL/mg Protein/min
same,Vmax (±SEM),human OCT1*1 (wild-type) [2]; [5],2263 ± 184 pmol/mg Protein/min
same,Km,"human OCT1*1 (wild-type) [2]; read-out: KM (±SEM), net uptake (OCT1 minus empty vector), HEK293, 0.1-1000 µM substrate, Michaelis–Menten",108 ± 17.4 µM
"C=C1[C@H](CO)[C@@H](O)C[C@@H]1n1cnc2c(=O)[nH]c(N)nc21 [Entecavir, entecavir]",OCT3 transport category,OCT3; [3],"0 (no transport by OCT1, OCT2, and OCT3 occurred (i.e., no kinetic parameters or uptake ratio <2 without significance))"
"O=c1ncccn1[C@@H]1O[C@H](CO)[C@@H](O)[C@H]1O [Zebularine, zebularine]",OCT1 substrate classification from concentration-dependent uptake,human OCT1*1 (wild-type) [2]; [4],none of the four antimetabolites showed uptake by OCT1
"Nc1ccn([C@@H]2O[C@H](CO)[C@@H](O)C2(F)F)c(=O)n1 [Gemcitabine, gemcitabine]",OCT1 substrate classification from concentration-dependent uptake,human OCT1*1 (wild-type) [2]; [4],none of the four antimetabolites showed uptake by OCT1
"Nc1nc2c(ncn2COCCO)c(=O)[nH]1 [Acyclovir, acyclovir]",OCT3 transport category,OCT3; [3],"0 (no transport by OCT1, OCT2, and OCT3 occurred (i.e., no kinetic parameters or uptake ratio <2 without significance))"
"Cc1ccc(NC(=O)c2ccc(CN3CCN(C)CC3)cc2)cc1Nc1nccc(-c2cccnc2)n1 [Imatinib, imatinib]",uptake by OCT1 (normalised to empty vector),human OCT1*1 (wild-type) [1],did not show uptake by OCT1
"C[C@H]1COc2c(N3CCN(C)CC3)c(F)cc3c(=O)c(C(=O)O)cn1c23 [Levofloxacin, levofloxacin]",OCT3 transport category,OCT3; [3],"0 (no transport by OCT1, OCT2, and OCT3 occurred (i.e., no kinetic parameters or uptake ratio <2 without significance))"
same,OCT1 substrate classification from concentration-dependent uptake,human OCT1*1 (wild-type) [2],poor substrate of OCT1
same,Clint (±SEM),human OCT1*1 (wild-type) [2],3.77 ± 2.77 µL/mg Protein/min
"C[C@H](CS)C(=O)N1CCC[C@H]1C(=O)O [Captopril, captopril]",OCT3 transport category,OCT3; [3],"0 (no transport by OCT1, OCT2, and OCT3 occurred (i.e., no kinetic parameters or uptake ratio <2 without significance))"
